According to US11541132B2, “Radiolabeled compounds” (Hoffmann-La Roche Inc., priority 2017, dated 2023):
Like-named read-outs stand apart in the source and are kept apart here.

Tests used:
[1] = molecular target: T1, native aSyn aggregates in A30P transgenic mouse brain sections (Homo sapiens, UniProt P37840, A30P); assay: aSyn in vitro displacement assay ([3H]Example-3 autoradiography); format: binding, mutant human aSyn gene); conditions: read-out: PCT_INHIB A30P @ 1 μM (% displacement of [3H]Example-3)
T1 construct: from tissue; host or cells: brain sections (midbrain and pons as ROI) of A30P transgenic mice, line B6.D2-Tg(Thy1-SNCA*30P)31Pjk

[2] = molecular target: T2, native Aβ aggregates in human AD brain tissue sections (Homo sapiens, UniProt P05067); assay: Aβ in vitro displacement assay (selectivity counterscreen, [3H]Example 3 autoradiography); format: binding; conditions: read-out: sel. counterscreen PCT_INHIB AD @ 1 μM (% displacement of [3H]Example 3)
T2 construct: native Aβ aggregates in human AD brain tissue samples; from tissue; host or cells: human AD brain tissue sections
T2 sequence (P05067 672-713 limits assumed): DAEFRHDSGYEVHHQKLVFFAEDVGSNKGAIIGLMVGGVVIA

[3] = 1 μM compound, 3 nM [3H]Example-3, A30P transgenic mouse brain sections
[4] = 1 μM compound, 3 nM [3H]Example 3, human AD brain sections

## COc1ccc(C(=O)Nc2ccc(N3CCN(c4ccc(C)cn4)CC3)cc2)cn1 [Example 4, 6-Methoxy-N-[4-[4-(5-methyl-2-pyridyl)piperazin-1-yl]phenyl]pyridine-3-carboxamide]
[1]; [3]
  inhibition at 1 µM: 89%
[2]; [4]
  inhibition at 1 µM: 91%

## CC(C)(C)[Si](C)(C)OC(CF)COc1ccc(C(=O)Nc2ccc(N3CCN(c4ccccn4)CC3)cc2)cc1 (racemic) [Example 124, rac-4-(2-((tert-Butyldimethylsilyl)oxy)-3-fluoropropoxy)-N-(4-(4-(pyridin-2-yl)piperazin-1-yl)phenyl)benzamide]
[1]
  inhibition at 1 µM: 82%
[2]
  inhibition at 1 µM: 91%

## COc1ccc(C(=O)Nc2cnc(N3CCN(c4ccccn4)CC3)nc2)cc1 [Example 59, 4-Methoxy-N-(2-(4-(pyridin-2-yl)piperazin-1-yl)pyrimidin-5-yl)benzamide]
[1]; [3]
  inhibition at 1 µM: 85%
[2]; [4]
  inhibition at 1 µM: 97%

## COc1ccc(C(=O)Nc2ccc(N3CCN(c4ccccc4C#N)CC3)cc2)cc1 [Example 70, N-{4-[4-(2-Cyanophenyl)piperazin-1-yl]phenyl}-4-methoxybenzamide]
[1]; [3]
  inhibition at 1 µM: 84%
[2]; [4]
  inhibition at 1 µM: 64%

## COc1ccc(C(=O)Nc2ccc(N3CCN(c4cnc(C#N)cn4)CC3)cc2)cc1 [Example 147, N-(4-(4-(5-Cyanopyrazin-2-yl)piperazin-1-yl)phenyl)-4-methoxybenzamide]
[1]; [3]
  inhibition at 1 µM: 88%
[2]; [4]
  inhibition at 1 µM: 91%

## CN1CCN(c2ccc(C(=O)Nc3ccc(N4CCN(c5ccccn5)CC4)cc3)cc2)CC1 [Example 6, 4-(4-Methylpiperazin-1-yl)-N-(4-(4-(pyridin-2-yl)piperazin-1-yl)phenyl)benzamide]
[1]; [3]
  inhibition at 1 µM: 83%
[2]; [4]
  inhibition at 1 µM: 95%

## O=C(Nc1cnc(N2CCN(c3ccccn3)CC2)nc1)c1ccc(N2CCOCC2)cc1 [Example 63, 4-Morpholino-N-(2-(4-(pyridin-2-yl)piperazin-1-yl)pyrimidin-5-yl)benzamide]
[1]; [3]
  inhibition at 1 µM: 95%
[2]; [4]
  inhibition at 1 µM: 94%

## Cc1cccc(N2CCN(c3ccc(NC(=O)c4ccc(N(C)C)cc4)cc3)CC2)n1 [Example 30, 4-(Dimethylamino)-N-(4-(4-(6-methylpyridin-2-yl)piperazin-1-yl)phenyl)benzamide]
[1]; [3]
  inhibition at 1 µM: 91%
[2]; [4]
  inhibition at 1 µM: 96%

## COc1ccc(C(=O)Nc2ccc(N3CCN(c4cccnc4OC)CC3)cc2)cc1 [Example 67, 4-Methoxy-N-{4-[4-(2-methoxypyridin-3-yl)piperazin-1-yl]phenyl}benzamide]
[1]; [3]
  inhibition at 1 µM: 94%
[2]; [4]
  inhibition at 1 µM: 88%

## COc1ccc(C(=O)Nc2cnc(N3CCN(c4ccc(C#N)cn4)CC3)nc2)cc1 [Example 98, N-(2-(4-(5-Cyanopyridin-2-yl)piperazin-1-yl)pyrimidin-5-yl)-4-methoxybenzamide]
[1]; [3]
  inhibition at 1 µM: 86%
[2]; [4]
  inhibition at 1 µM: 86%

## Cc1ccc(C(=O)Nc2cnc(N3CCN(c4ccccn4)CC3)nc2)cc1 [Example 74, 4-Methyl-N-(2-(4-(pyridin-2-yl)piperazin-1-yl)pyrimidin-5-yl)benzamide]
[1]; [3]
  inhibition at 1 µM: 93%
[2]; [4]
  inhibition at 1 µM: 95%

## CC(C)(C)[Si](C)(C)OC(CF)COc1ccc(C(=O)Nc2ccc(N3CCN(c4ccc(C#N)cc4)CC3)cc2)cc1 (racemic) [Example 127, rac-4-(2-((tert-Butyldimethylsilyl)oxy)-3-fluoropropoxy)-N-(4-(4-(4-cyanophenyl)piperazin-1-yl)phenyl)benzamide]
[1]
  inhibition at 1 µM: 81%
[2]
  inhibition at 1 µM: 78%

## COc1ccc(C(=O)Nc2ccc(N3CCN(c4ccc(C#N)cn4)CC3)cn2)cc1 [Example 95, N-(5-(4-(5-Cyanopyridin-2-yl)piperazin-1-yl)pyridin-2-yl)-4-methoxybenzamide]
[1]; [3]
  inhibition at 1 µM: 83%
[2]; [4]
  inhibition at 1 µM: 95%

## CN(C)c1ccc(C(=O)Nc2ccc(N3CCN(c4ccccn4)CC3)nc2)cc1 [Example 31, 4-(Dimethylamino)-N-[6-[4-(2-pyridyl)piperazin-1-yl]-3-pyridyl]benzamide]
[1]; [3]
  inhibition at 1 µM: 90%
[2]; [4]
  inhibition at 1 µM: 98%

## O=C(Nc1ccc(N2CCN(c3ccccn3)CC2)cc1)c1ccc(O)cc1 [Example 2, 4-hydroxy-N-(4-(4-(pyridin-2-yl)piperazin-1-yl)phenyl)benzamide]
[1]; [3]
  inhibition at 1 µM: 85%
[2]; [4]
  inhibition at 1 µM: 93%

## COc1ccc(C(=O)Nc2ccc(N3CCN(c4ncccc4F)CC3)cc2)cc1 [Example 148, N-(4-(4-(3-Fluoropyridin-2-yl)piperazin-1-yl)phenyl)-4-methoxybenzamide]
[1]; [3]
  inhibition at 1 µM: 86%
[2]; [4]
  inhibition at 1 µM: 89%

## O=C(Nc1ccc(N2CCN(c3ccccn3)CC2)nc1)c1ccc(N2CCOCC2)cc1 [Example 32, 4-Morpholino-N-[6-[4-(2-pyridyl)piperazin-1-yl]-3-pyridyl]benzamide]
[1]; [3]
  inhibition at 1 µM: 87%
[2]; [4]
  inhibition at 1 µM: 88%

## CN1CCN(c2ccc(C(=O)Nc3cnc(N4CCN(c5ccccn5)CC4)nc3)cc2)CC1 [Example 73, 4-(4-Methylpiperazin-1-yl)-N-(2-(4-(pyridin-2-yl)piperazin-1-yl)pyrimidin-5-yl)benzamide]
[1]; [3]
  inhibition at 1 µM: 88%
[2]; [4]
  inhibition at 1 µM: 91%

## COc1ccc(C(=O)Nc2ccc(N3CCN(c4ccc(C#N)cc4)CC3)cc2)cc1F [Example 163, N-(4-(4-(4-Cyanophenyl)piperazin-1-yl)phenyl)-3-fluoro-4-methoxybenzamide]
[1]; [3]
  inhibition at 1 µM: 94%
[2]; [4]
  inhibition at 1 µM: 92%

## COc1ccc(C(=O)Nc2ccc(N3CCN(c4cccc(C#N)c4)CC3)cc2)cc1 [Example 103, N-[4-[4-(3-Cyanophenyl)piperazin-1-yl]phenyl]-4-methoxy-benzamide]
[1]; [3]
  inhibition at 1 µM: 100%
[2]; [4]
  inhibition at 1 µM: 99%

## CN(C)c1ccc(C(=O)Nc2ccc(N3CCN(c4ccccn4)CC3)cc2)cc1 [Example 7, 4-(Dimethylamino)-N-(4-(4-(pyridin-2-yl)piperazin-1-yl)phenyl)benzamide]
[1]; [3]
  inhibition at 1 µM: 90%
[2]; [4]
  inhibition at 1 µM: 108%

## COc1ccc(C(=O)Nc2ccc(N3CCN(c4ccncn4)CC3)cc2)cc1 [Example 56, 4-Methoxy-N-{4-[4-(pyrimidin-4-yl)piperazin-1-yl]phenyl}benzamide]
[1]; [3]
  inhibition at 1 µM: 88%
[2]; [4]
  inhibition at 1 µM: 98%

## N#Cc1ccc(N2CCN(c3ccc(NC(=O)c4ccc(OCCOCCF)cc4)cc3)CC2)cc1 [Example 122, N-(4-(4-(4-cyanophenyl)piperazin-1-yl)phenyl)-4-(2-(2-fluoroethoxy)ethoxy) benzamide]
[1]; [3]
  inhibition at 1 µM: 88%
[2]; [4]
  inhibition at 1 µM: 85%

## O=C(Nc1cnc(N2CCN(c3ccccn3)CC2)nc1)c1ccccc1F [Example 61, 2-Fluoro-N-(2-(4-(pyridin-2-yl)piperazin-1-yl)pyrimidin-5-yl)benzamide]
[1]; [3]
  inhibition at 1 µM: 86%
[2]; [4]
  inhibition at 1 µM: 93%

## O=C(Nc1ccc(N2CCN(c3ccccn3)CC2)cc1)c1ccn2ccnc2c1 [Example 16, N-(4-(4-(Pyridin-2-yl)piperazin-1-yl)phenyl)imidazo[1,2-a]pyridine-7-carboxamide]
[1]; [3]
  inhibition at 1 µM: 87%
[2]; [4]
  inhibition at 1 µM: 97%

## COc1cccc(C(=O)Nc2ccc(N3CCN(c4ccc(C#N)cc4)CC3)cc2)n1 [Example 93, N-(4-(4-(4-Cyanophenyl)piperazin-1-yl)phenyl)-6-methoxypicolinamide]
[1]; [3]
  inhibition at 1 µM: 99%
[2]; [4]
  inhibition at 1 µM: 89%

## COc1ccc(C(=O)Nc2ccc(N3CCN(c4cc(C#N)ccn4)CC3)cc2)cc1 [Example 65, N-[4-[4-(4-Cyano-2-pyridyl)piperazin-1-yl]phenyl]-4-methoxy-benzamide]
[1]; [3]
  inhibition at 1 µM: 100%
[2]; [4]
  inhibition at 1 µM: 99%

## O=C(Nc1ccc(N2CCN(c3ccccn3)CC2)cc1)c1ccc2c(c1)OCCO2 [Example 14, N-(4-(4-(Pyridin-2-yl)piperazin-1-yl)phenyl)-2,3-dihydrobenzo[b][1,4]dioxine-6-carboxamide]
[1]; [3]
  inhibition at 1 µM: 91%
[2]; [4]
  inhibition at 1 µM: 96%

## COc1ccc(C(=O)Nc2ccc(N3CCN(c4ccncc4)CC3)cc2)cc1 [Example 41, 4-Methoxy-N-[4-[4-(4-pyridyl)piperazin-1-yl]phenyl]benzamide]
[1]; [3]
  inhibition at 1 µM: 84%
[2]; [4]
  inhibition at 1 µM: 90%

## O=C(Nc1ccc(N2CCN(c3nccs3)CC2)cc1)c1ccc(OCCF)cc1 [Example 119, 4-(2-Fluoroethoxy)-N-[4-(4-thiazol-2-ylpiperazin-1-yl)phenyl]benzamide]
[1]; [3]
  inhibition at 1 µM: 83%
[2]; [4]
  inhibition at 1 µM: 89%

## COc1ccc(C(=O)Nc2ccc(N3CCN(c4ccccn4)CC3)nn2)c(F)c1 [Example 40, 2-Fluoro-4-methoxy-N-[6-[4-(2-pyridyl)piperazin-1-yl]pyridazin-3-yl]benzamide]
[1]; [3]
  inhibition at 1 µM: 86%
[2]; [4]
  inhibition at 1 µM: 92%

## N#Cc1ccc(N2CCN(c3ccc(NC(=O)c4ccc(OCC(O)CF)cc4)cc3)CC2)nc1 (racemic) [Example 129, rac-N-(4-(4-(5-Cyanopyridin-2-yl)piperazin-1-yl)phenyl)-4-(3-fluoro-2-hydroxypropoxy)benzamide]
[1]; [3]
  inhibition at 1 µM: 86%
[2]; [4]
  inhibition at 1 µM: 94%

## CN(C)c1ccc(C(=O)Nc2cnc(N3CCN(c4ccccn4)CC3)nc2)cc1 [Example 62, 4-(Dimethylamino)-N-(2-(4-(pyridin-2-yl)piperazin-1-yl)pyrimidin-5-yl)benzamide]
[1]; [3]
  inhibition at 1 µM: 89%
[2]; [4]
  inhibition at 1 µM: 97%

## O=C(Nc1cnc(N2CCN(c3ccccn3)CC2)cn1)c1ccc(N2CCOCC2)cc1 [Example 88, 4-Morpholino-N-(5-(4-(pyridin-2-yl)piperazin-1-yl)pyrazin-2-yl)benzamide]
[1]; [3]
  inhibition at 1 µM: 87%
[2]; [4]
  inhibition at 1 µM: 71%
